Source: patent US10344025B2, “GLS1 inhibitors for treating disease” (Board of Regents, The University of Texas System, priority 2014, dated 2019)

Tests used:
[1] = target: purified recombinant human GAC (GLS1) (Homo sapiens (Human), UniProt O94925); assay: GLS1 Enzymatic Activity Assay (dual-coupled enzymatic assay, resorufin/Amplex UltraRed readout); type: biochemical;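 also: glutamate from GAC coupled via glutamate oxidase and peroxidase to resorufin, read as fluorescence (ex 530, em 590 nm) kinetically or at 20 min, four-parameter logistic IC50 fit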
A549 cells = assay: Proliferation Assay (A549 viability, Cell Titer Fluor, 72 hours); type: cell-based; conditions: Homo sapiens, A549, 72 h
Procedure: A549 cells were routinely maintained in RPMI 1640 media (Gibco catalog number 11875-093) supplemented with 10% dialyzed fetal bovine serum using a humidified incubator (37° C., 5% CO2 and ambient O2). In preparation for the viability assay, cells were inoculated into 384-well black CulturPlates (Perkin Elmer) at a density of 1000 cells/well in a volume of 40 uL. Following a 24-hour incubation at 37° C., 5% CO2 and ambient O2, cells were treated with compound (10 uL) in a final DMSO concentration of 0.5% (v/v). The microplates were then incubated for 72 hours (37° C., 5% CO2 and ambient O2). Cell Titer Fluor (Promega) was subsequently added (10 uL of 6× reagent) and mixed for 15 minutes at room temperature. The plates were then incubated for 30 minutes (37° C., 5% CO2 and ambient O2) and fluorescence was subsequently read on the Perkin Elmer Envision plate reader. IC50 values were calculated using a four-parameter logistic curve fit.
Non-limiting examples include the following compounds and pharmaceutically acceptable salts thereof. […] “ND” indicates no data.

purified recombinant human GAC (GLS1), sequence (O94925 other isoform, or with tags, fused parts or gaps): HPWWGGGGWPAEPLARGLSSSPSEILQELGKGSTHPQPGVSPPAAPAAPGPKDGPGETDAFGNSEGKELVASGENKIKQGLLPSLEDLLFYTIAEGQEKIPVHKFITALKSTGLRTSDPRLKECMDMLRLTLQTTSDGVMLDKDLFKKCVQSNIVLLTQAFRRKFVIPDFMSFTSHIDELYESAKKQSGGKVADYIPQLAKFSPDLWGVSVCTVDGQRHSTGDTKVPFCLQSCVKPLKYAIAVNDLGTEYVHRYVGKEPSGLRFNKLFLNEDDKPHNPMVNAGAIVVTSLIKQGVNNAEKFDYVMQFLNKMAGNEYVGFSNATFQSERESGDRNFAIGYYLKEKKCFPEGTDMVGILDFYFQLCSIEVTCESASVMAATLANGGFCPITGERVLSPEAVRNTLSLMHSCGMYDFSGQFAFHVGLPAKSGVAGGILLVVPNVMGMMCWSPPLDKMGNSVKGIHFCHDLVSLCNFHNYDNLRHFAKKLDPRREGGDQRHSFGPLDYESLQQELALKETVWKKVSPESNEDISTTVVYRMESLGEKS

Structure (SMILES) | IC50 [1] [nM] | EC50 (A549 cells) [nM]
Cc1ccnc(CNC(=O)c2cn(CCC(F)Cn3cc(C(=O)NCc4cc(C(F)(F)F)ccn4)nn3)nn2)c1 (stereo not drawn) [Example 159, 1-[2-fluoro-4-(4-{[(4-methylpyridin-2-yl)methyl]carbamoyl}-1H-1,2,3-triazol-1-yl)butyl]-N-{[4-(trifluoromethyl)pyridin-2-yl]methyl}-1H-1,2,3-triazole-4-carboxamide] | < 100 | 100 to 500
O=C(NCc1cc(C2CC2)ccn1)c1cn(CCC(F)Cn2cc(C(=O)NCc3cccc(OC(F)(F)F)c3)nn2)nn1 (stereo not drawn) [Example 148, 1-[4-(4-({[4-cyclopropylpyridin-2-yl)methyl]carbamoyl}-1H-1,2,3-triazol-1-yl)-2-fluorobutyl]-N-{[3-(trifluoromethoxy)phenyl]methyl}-1H-1,2,3-triazole-4-carboxamide] | < 100 | < 100
CNC(=O)c1cn(CCC(F)Cn2cc(C(=O)NCc3cc(OC(F)(F)F)ccc3F)nn2)nn1 (stereo not drawn) [Example 153, 1-{3-fluoro-4-[4-({[2-fluoro-5-(trifluoromethoxy)phenyl]methyl}carbamoyl)-1H-1,2,3-triazol-1-yl]butyl}-N-methyl-1H-1,2,3-triazole-4-carboxamide] | < 100 | 100 to 500
CNC(=O)c1cn(CCC(F)Cn2cc(C(=O)NCc3cccc(CNC(=O)OC(C)(C)C)c3)nn2)nn1 (stereo not drawn) [Example 166, tert-butyl N-[(3-{[(1-{2-fluoro-4-[4-(methylcarbamoyl)-1H-1,2,3-triazol-1-yl]butyl}-1H-1,2,3-triazol-4-yl)formamido]methyl}phenyl)methyl]carbamate] | < 100 | 100 to 500
O=C(NCc1ccccn1)c1cn(CCCCc2nnc(C(=O)NCc3cccc(OC(F)(F)F)c3)s2)nn1 [Example 65, 5-(4-{4-[(pyridin-2-ylmethyl)carbamoyl]-1H-1,2,3-triazol-1-yl}butyl)-N-{[3-(trifluoromethoxy)phenyl]methyl}-1,3,4-thiadiazole-2-carboxamide] | < 100 | 100 to 500
CNC(=O)c1cn(CCCCc2nnc(NC(=O)Cc3cccc(OC(F)(F)F)c3)s2)nn1 [Example 2, N-Methyl-1-(4-(5-(2-(3-(trifluoromethoxy)phenyl)acetamido)-1,3,4-thiadiazol-2-yl)butyl)-1H-1,2,3-triazole-4-carboxamide] | < 100 | < 100
O=C(Cc1cc(OC(F)(F)F)ccc1F)Nc1cn(CCCCn2cc(C(=O)NCc3cccc(OC(F)(F)F)c3)nn2)nn1 [Example 380, 1-[4-(4-{2-[2-fluoro-5-(trifluoromethoxy)phenyl]acetamido}-1H-1,2,3-triazol-1-yl)butyl]-N-{[3-(trifluoromethoxy)phenyl]methyl}-1H-1,2,3-triazole-4-carboxamide] | < 100 | < 100
CNC(=O)c1cn(CCCCc2ccc(NC(=O)Cc3cc(-c4cccc(Cl)c4OC(F)(F)F)ccn3)nn2)nn1 [Example 608, 1-(4-(6-(2-(4-(3-chloro-2-(trifluoromethoxy)phenyl)pyridin-2-yl)acetamido)pyridazin-3-yl)butyl)-N-methyl-1H-1,2,3-triazole-4-carboxamide] |  | < 100
CC(C)(O)CNC(=O)c1cn(CCCCc2ccc(NC(=O)Cc3cccc(OC(F)(F)F)c3)nn2)nn1 [Example 549, N-(2-hydroxy-2-methylpropyl)-1-[4-(6-{2-[3-(trifluoromethoxy)phenyl]acetamido}pyridazin-3-yl)butyl]-1H-1,2,3-triazole-4-carboxamide] |  | 500 to 5000
CNC(=O)c1cn(C[C@@H](F)CCc2ccc(NC(=O)Cc3cc(-c4cccc(OC(F)(F)F)c4)ccn3)nn2)nn1 [Example 257, (S)-1-(2-fluoro-4-(6-(2-(4-(3-(trifluoromethoxy)phenyl)pyridin-2-yl)acetamido)pyridazin-3-yl)butyl)-N-methyl-1H-1,2,3-triazole-4-carboxamide] |  | < 100
O=C(Cc1ccccn1)Nc1ccc(CCCCn2cc(C(=O)NCc3cc(C(F)(F)F)ccn3)nn2)nn1 [Example 203, 1-(4-(6-(2-(pyridin-2-yl)acetamido)pyridazin-3-yl)butyl)-N-((4-(trifluoromethyl)pyridin-2-yl)methyl)-1H-1,2,3-triazole-4-carboxamide] |  | < 100
CNC(=O)c1cn(CCCCc2ccc(NC(=O)Cc3cc(-c4ccc(F)cc4C(F)(F)F)ccn3)nn2)nn1 [Example 606, 1-(4-(6-(2-(4-(4-fluoro-2-(trifluoromethyl)phenyl)pyridin-2-yl)acetamido)pyridazin-3-yl)butyl)-N-methyl-1H-1,2,3-triazole-4-carboxamide] |  | < 100
CNC(=O)c1cn(CCCCc2ccc(NC(=O)Cc3cc(C(F)(F)F)ccn3)nn2)nn1 [Example 210, N-methyl-1-(4-(6-(2-(4-(trifluoromethyl)pyridin-2-yl)acetamido)pyridazin-3-yl)butyl)-1H-1,2,3-triazole-4-carboxamide] |  | 100 to 500
CNC(=O)c1cn(CC(F)CCc2ccc(NC(=O)Cc3cc(OC4CC(F)(F)C4)ccn3)nn2)nn1 (stereo not drawn) [Example 252, 1-(4-(6-(2-(4-(3,3-difluorocyclobutoxy)pyridin-2-yl)acetamido)pyridazin-3-yl)-2-fluorobutyl)-N-methyl-1H-1,2,3-triazole-4-carboxamide] |  | < 100
COc1cncc(CNC(=O)c2cn(CC(F)CCc3nnc(NC(=O)Cc4cccc(OC(F)(F)F)c4)s3)nn2)c1 (stereo not drawn) [Example 222, 1-(2-fluoro-4-(5-(2-(3-(trifluoromethoxy)phenyl)acetamido)-1,3,4-thiadiazol-2-yl)butyl)-N-((5-methoxypyridin-3-yl)methyl)-1H-1,2,3-triazole-4-carboxamide] |  | < 100
O=C(Cc1cccc(OC(F)(F)F)c1)Nc1ccc(CCCCn2cc(C(=O)NCCO)nn2)nn1 [Example 528, N-(2-hydroxyethyl)-1-[4-(6-{2-[3-(trifluoromethoxy)phenyl]acetamido}pyridazin-3-yl)butyl]-1H-1,2,3-triazole-4-carboxamide] |  | 500 to 5000
CNC(=O)c1cn(CC(F)CCc2ccc(NC(=O)Cc3cc(-c4cccc(OC(F)(F)F)c4)ccn3)nn2)nn1 (stereo not drawn) [Example 242, 1-(2-fluoro-4-(6-(2-(4-(3-(trifluoromethoxy)phenyl)pyridin-2-yl)acetamido)pyridazin-3-yl)butyl)-N-methyl-1H-1,2,3-triazole-4-carboxamide] |  | < 100
CNC(=O)c1cn(CCCCc2ccc(NC(=O)Cc3cc(-c4cc(F)ccc4C)ccn3)nn2)nn1 [Example 609, 1-(4-(6-(2-(4-(5-fluoro-2-methylphenyl)pyridin-2-yl)acetamido)pyridazin-3-yl)butyl)-N-methyl-1H-1,2,3-triazole-4-carboxamide] |  | < 100
CNC(=O)c1cn(CCCCc2ccc(NC(=O)Cc3cc(OCC(F)(F)F)ccn3)nn2)nn1 [Example 225, N-methyl-1-(4-(6-(2-(4-(2,2,2-trifluoroethoxy)pyridin-2-yl)acetamido)pyridazin-3-yl)butyl)-1H-1,2,3-triazole-4-carboxamide] |  | 100 to 500
CNC(=O)c1cn(CCCCc2ccc(NC(=O)Cc3cc(Br)ccn3)nn2)nn1 [Example 200, 1-(4-(6-(2-(4-bromopyridin-2-yl)acetamido)pyridazin-3-yl)butyl)-N-methyl-1H-1,2,3-triazole-4-carboxamide] |  | 100 to 500
